Usually pIC50 stands for −log10 of the IC50, conventionally taken in molar units.

This passage reports IC50 and Ratio results from patent publication US11254686B1 (Corvus Pharmaceuticals, Inc., priority 2017, dated 2022).

pIC50: −log10 of the molar value. Bounds are passed on as bounds.

Common to all, as to assay type: biochemical
One experiment addresses adenosine A3 receptor (Homo sapiens (Human), UniProt P0DMS8). Description: A3 cAMP IC50 assay (Table 1).
The next experiment has as its target adenosine A2A receptor (Homo sapiens (Human), UniProt P29274). Description: Adenosine receptor activity assay (Table 1), A2A activity. The note with it: read-out: Ave A2A cAMP IC50.
The target of another experiment is adenosine A1 receptor (Homo sapiens (Human), UniProt P30542). The experiment is described as follows: A1 cAMP IC50 assay (Table 1).
adenosine A1 receptor, sequence (P30542 whole entry): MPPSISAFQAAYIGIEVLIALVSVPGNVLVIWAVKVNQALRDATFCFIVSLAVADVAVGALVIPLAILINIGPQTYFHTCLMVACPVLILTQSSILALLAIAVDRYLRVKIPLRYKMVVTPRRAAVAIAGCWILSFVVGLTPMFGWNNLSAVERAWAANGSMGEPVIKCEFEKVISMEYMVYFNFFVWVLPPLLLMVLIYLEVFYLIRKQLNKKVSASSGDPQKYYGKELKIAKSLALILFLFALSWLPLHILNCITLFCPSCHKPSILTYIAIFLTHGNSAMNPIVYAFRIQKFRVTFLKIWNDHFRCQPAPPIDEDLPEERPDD
For another experiment, the target named is adenosine A2B receptor (Homo sapiens (Human), UniProt P29275). Description: Adenosine receptor activity assay (Table 1), A2B activity. The following applies: for Ratio: A2A activity to A2B activity (A2A/A2B); for pIC50: read-out: Ave A2B cAMP IC50.
adenosine A2B receptor, sequence (P29275 whole entry): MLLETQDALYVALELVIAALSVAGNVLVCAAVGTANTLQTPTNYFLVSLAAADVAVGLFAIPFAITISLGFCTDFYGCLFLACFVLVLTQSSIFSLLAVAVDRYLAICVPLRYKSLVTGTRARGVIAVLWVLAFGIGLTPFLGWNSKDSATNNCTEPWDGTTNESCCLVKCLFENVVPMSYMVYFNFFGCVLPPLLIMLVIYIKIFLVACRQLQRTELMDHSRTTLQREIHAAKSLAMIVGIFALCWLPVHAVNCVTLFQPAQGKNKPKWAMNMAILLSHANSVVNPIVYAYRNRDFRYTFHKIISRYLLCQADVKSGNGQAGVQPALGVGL

adenosine A2A receptor, sequence (P29274 whole entry): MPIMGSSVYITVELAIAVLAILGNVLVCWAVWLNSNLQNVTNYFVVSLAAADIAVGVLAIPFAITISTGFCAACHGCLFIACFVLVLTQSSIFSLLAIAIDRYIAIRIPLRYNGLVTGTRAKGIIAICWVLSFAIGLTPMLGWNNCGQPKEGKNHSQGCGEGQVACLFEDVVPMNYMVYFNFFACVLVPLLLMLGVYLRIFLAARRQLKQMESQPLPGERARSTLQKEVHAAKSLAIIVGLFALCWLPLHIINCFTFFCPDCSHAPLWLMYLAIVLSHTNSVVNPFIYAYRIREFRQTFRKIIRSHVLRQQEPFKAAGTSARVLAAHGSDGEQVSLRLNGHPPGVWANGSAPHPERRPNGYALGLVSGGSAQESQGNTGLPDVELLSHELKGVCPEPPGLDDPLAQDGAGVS
adenosine A3 receptor, sequence (P0DMS8 whole entry): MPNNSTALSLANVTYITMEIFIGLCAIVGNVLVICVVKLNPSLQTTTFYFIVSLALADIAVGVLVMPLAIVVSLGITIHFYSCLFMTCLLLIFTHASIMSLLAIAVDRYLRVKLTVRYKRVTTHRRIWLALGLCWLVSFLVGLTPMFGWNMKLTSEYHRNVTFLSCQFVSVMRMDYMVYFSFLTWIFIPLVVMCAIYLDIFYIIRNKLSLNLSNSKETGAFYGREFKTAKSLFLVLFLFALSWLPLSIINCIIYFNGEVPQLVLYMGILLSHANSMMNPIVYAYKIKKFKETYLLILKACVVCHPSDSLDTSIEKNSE

As for `CNc1cc2nc(N[C@@H](C)c3cccnc3)nc(C(=O)N3CC[C@H](F)C3)c2s1` [Example Z187, ((S)-3-Fluoropyrrolidin-1-yl)(6-(methylamino)-2-(((S)-1-(pyridin-3-yl)ethyl)amino)thieno[3,2-d]pyrimidin-4-yl)methanone], the pIC50 against adenosine A3 receptor was 7.00 to 7.30; on adenosine A2A receptor, 6.30 to 7.00; on adenosine A1 receptor it was under 6.30; on adenosine A2B receptor it was over 8.00. Moreover, the Ratio on adenosine A2B receptor is on record as 48.67.

For the compound `C[C@H](Nc1nc(C(=O)N2CC[C@@H](O)C2)c2sccc2n1)c1cccc(F)c1` [Example Z132, (2-(((S)-1-(3-Fluorophenyl)ethyl)amino)thieno[3,2-d]pyrimidin-4-yl)((R)-3-hydroxypyrrolidin-1-yl)methanone], the pIC50 on adenosine A3 receptor is under 6.30; at adenosine A2A receptor it was 6.30 to 7.00; against adenosine A1 receptor, under 6.30; on adenosine A2B receptor, over 8.00. The Ratio at adenosine A2B receptor worked out at 20.13.

Regarding `C[C@H](Nc1nc(C(=O)N[C@H]2CCN(C(=O)OC(C)(C)C)C2)c2sccc2n1)c1ccccn1` [Example Z143, tert-Butyl (S)-3-(2-(((S)-1-(pyridin-2-yl)ethyl)amino)thieno[3,2-d]pyrimidine-4-carboxamido)pyrrolidine-1-carboxylate], the pIC50 was 7.30 to 8.00 against adenosine A3 receptor, 7.30 to 8.00 on adenosine A2A receptor, under 6.30 on adenosine A1 receptor and 7.00 to 7.30 on adenosine A2B receptor. In addition, on adenosine A2B receptor, the Ratio turned out to be 0.44.

`CNc1cc2nc(N[C@@H](C)c3ccccn3)nc(C(=O)N3CCC3)c2s1` [Example Z173, (S)-Azetidin-1-yl(6-(methylamino)-2-((1-(pyridin-2-yl)ethyl)amino)thieno[3,2-d]pyrimidin-4-yl)methanone]: the pIC50 is 7.00 to 7.30 against adenosine A3 receptor, 6.30 to 7.00 at adenosine A2A receptor, under 6.30 against adenosine A1 receptor and over 8.00 at adenosine A2B receptor. Further, the Ratio on adenosine A2B receptor is listed as 45.26.

Turning to `C[C@H](Nc1nc(C(=O)N2CCC2)c2sccc2n1)c1cccc(F)c1` [Example Z128, (S)-Azetidin-1-yl(2-((1-(3-fluorophenyl)ethyl)amino)thieno[3,2-d]pyrimidin-4-yl)methanone], the pIC50 on adenosine A3 receptor is under 6.30; at adenosine A2A receptor, 7.00 to 7.30; on adenosine A1 receptor, under 6.30; on adenosine A2B receptor, over 8.00. In addition, on adenosine A2B receptor, the Ratio came out at 32.43.

`CNc1cc2nc(N[C@@H](C)c3ccccn3)nc(C(=O)N3CC[C@@H](F)C3)c2s1` [Example Z175, ((R)-3-fluoropyrrolidin-1-yl)(6-(methylamino)-2-(((S)-1-(pyridin-2-yl)ethyl)amino)thieno[3,2-d]pyrimidin-4-yl)methanone]: the pIC50 was 7.00 to 7.30 at adenosine A3 receptor, 6.30 to 7.00 on adenosine A2A receptor, under 6.30 on adenosine A1 receptor and over 8.00 at adenosine A2B receptor. Further, at adenosine A2B receptor, the Ratio came to 22.59.

On to `C[C@H](Nc1nc(C(=O)NC[C@@H](C)O)c2sccc2n1)c1ccccn1` [Example Z162, N—((R)-2-Hydroxypropyl)-2-(((S′)-1-(pyridin-2-yl)ethyl)amino)thieno[3,2-d]pyrimidine-4-carboxamide], for which the pIC50 is under 6.30 against adenosine A3 receptor, 6.30 to 7.00 on adenosine A2A receptor, under 6.30 against adenosine A1 receptor and 7.30 to 8.00 on adenosine A2B receptor. In addition, the Ratio on adenosine A2B receptor was 5.97.

As for `CNc1cc2nc(N[C@@H](C)c3ccccn3)nc(C(=O)N3CC[C@@H](O)C3)c2s1` [Example Z176, ((R)-3-Hydroxypyrrolidin-1-yl)(6-(methylamino)-2-(((S)-1-(pyridin-2-yl)ethyl)amino)thieno[3,2-d]pyrimidin-4-yl)methanone], the pIC50 is 7.00 to 7.30 at adenosine A3 receptor, under 6.30 on adenosine A2A receptor, under 6.30 against adenosine A1 receptor and 7.30 to 8.00 on adenosine A2B receptor. Moreover, on adenosine A2B receptor, the Ratio was found to be 27.44.

Regarding `O=C(NC1CC(O)C1)c1nc(NCc2cncc(F)c2)nc2ccsc12` (centres unmarked) [Example Z184, 2-(((5-Fluoropyridin-3-yl)methyl)amino)-N-((1r,3r)-3-hydroxycyclobutyl)thieno[3,2-d]pyrimidine-4-carboxamide], the pIC50 on adenosine A3 receptor was under 6.30; on adenosine A2A receptor it was under 6.30; against adenosine A1 receptor, under 6.30; at adenosine A2B receptor, 7.30 to 8.00. In addition, the Ratio on adenosine A2B receptor amounted to 25.53.

Take `C[C@H](O)CNC(=O)c1nc(N[C@@H](C)c2ccccn2)nc2ccsc12` [Example Z163, N—((S)-2-Hydroxypropyl)-2-(((S)-1-(pyridin-2-yl)ethyl)amino)thieno[3,2-d]pyrimidine-4-carboxamide]: the pIC50 at adenosine A3 receptor is under 6.30; at adenosine A2A receptor it was 6.30 to 7.00; on adenosine A1 receptor it was under 6.30; on adenosine A2B receptor it was 7.00 to 7.30. For the same compound, at adenosine A2B receptor, the Ratio amounted to 4.38.

As for `CNc1cc2nc(N[C@@H](C)c3cccnc3)nc(C(=O)N3CCC3)c2s1` [Example Z153, (S)-Azetidin-1-yl(6-(methylamino)-2-((1-(pyridin-3-yl)ethyl)amino)thieno[3,2-d]pyrimidin-4-yl)methanone], the pIC50 was 7.00 to 7.30 on adenosine A3 receptor, 6.30 to 7.00 on adenosine A2A receptor, under 6.30 at adenosine A1 receptor and over 8.00 at adenosine A2B receptor. Moreover, the Ratio at adenosine A2B receptor is 46.65.

For the compound `O=C(c1nc(NCc2cncc(Cl)c2)nc2ccsc12)N1CCCC1` [Example Z93, (2-(((5-Chloropyridin-3-yl)methyl)amino)thieno[3,2-d]pyrimidin-4-yl)(pyrrolidin-1-yl)methanone], the pIC50 against adenosine A3 receptor was under 6.30; on adenosine A2A receptor, under 6.30; at adenosine A1 receptor it was under 6.30; on adenosine A2B receptor it was 7.30 to 8.00. On adenosine A2B receptor, the Ratio is listed as 57.59.

For `CNc1cc2nc(N[C@@H](C)c3cccnc3)nc(C(=O)N3CC[C@@H](O)C3)c2s1` [Example Z172, ((R)-3-Hydroxypyrrolidin-1-yl)(6-(methylamino)-2-(((S)-1-(pyridin-3-yl)ethyl)amino)thieno[3,2-d]pyrimidin-4-yl)methanone], the pIC50 was under 6.30 against adenosine A3 receptor, under 6.30 on adenosine A2A receptor, under 6.30 against adenosine A1 receptor and 7.00 to 7.30 on adenosine A2B receptor. In addition, on adenosine A2B receptor, the Ratio is recorded as 54.37.

Turning to `C[C@H](Nc1nc(C(=O)N[C@H]2C[C@H](O)C2)c2sccc2n1)c1ccccn1` [Example Z159, N-((1r,3S)-3-Hydroxycyclobutyl)-2-(((S)-1-(pyridin-2-yl)ethyl)amino)thieno[3,2-d]pyrimidine-4-carboxamide], the pIC50 was under 6.30 against adenosine A3 receptor, 6.30 to 7.00 on adenosine A2A receptor, under 6.30 against adenosine A1 receptor and 7.30 to 8.00 on adenosine A2B receptor. Also, the Ratio on adenosine A2B receptor was determined as 5.18.

As to `C[C@H](Nc1nc(C(=O)NCc2ccc(OCC3CC3)nc2)c2sccc2n1)c1ccccn1` [Example Z107, (S)—N-((6-(Cyclopropylmethoxy)pyridin-3-yl)methyl)-2-((1-(pyridin-2-yl)ethyl)amino)thieno[3,2-d]pyrimidine-4-carboxamide], the pIC50 was 6.30 to 7.00 against adenosine A3 receptor, 7.00 to 7.30 at adenosine A2A receptor, 6.30 to 7.00 against adenosine A1 receptor and 7.00 to 7.30 on adenosine A2B receptor. Besides, the Ratio on adenosine A2B receptor was 0.84.

As to `C[C@H](Nc1nc(C(=O)NC2CCCC2)c2sccc2n1)c1ccccn1` [Example Z180, (S)—N-Cyclopentyl-2-((1-(pyridin-2-yl)ethyl)amino)thieno[3,2-d]pyrimidine-4-carboxamide], the pIC50 was 6.30 to 7.00 on adenosine A3 receptor, 7.30 to 8.00 at adenosine A2A receptor, 6.30 to 7.00 against adenosine A1 receptor and 7.30 to 8.00 on adenosine A2B receptor. The Ratio at adenosine A2B receptor is reported as 1.80.

Turning to `O=C(NC1CCC1)c1nc(NCc2cc(F)cc(F)c2)nc2ccsc12` [Example Z177, N-Cyclobutyl-2-((3,5-difluorobenzyl)amino)thieno[3,2-d]pyrimidine-4-carboxamide], the pIC50 is under 6.30 at adenosine A3 receptor, 7.00 to 7.30 at adenosine A2A receptor, 7.00 to 7.30 against adenosine A1 receptor and 7.30 to 8.00 at adenosine A2B receptor. In addition, the Ratio on adenosine A2B receptor is listed as 7.01.

For `O=C(c1nc(NCc2ccccn2)nc2ccsc12)N1CCCC1` [Example Z95, (2-((Pyridin-2-ylmethyl)amino)thieno[3,2-d]pyrimidin-4-yl)(pyrrolidin-1-yl)methanone], the pIC50 is under 6.30 against adenosine A3 receptor, 6.30 to 7.00 at adenosine A2A receptor, under 6.30 against adenosine A1 receptor and 7.30 to 8.00 at adenosine A2B receptor. For the same compound, the Ratio on adenosine A2B receptor turned out to be 8.80.

On to `C[C@H](Nc1nc(C(=O)NCc2ccccn2)c2sccc2n1)c1cccnc1` [Example Z89, (S)—N-(Pyridin-2-ylmethyl)-2-((1-(pyridin-3-yl)ethyl)amino)thieno[3,2-d]pyrimidine-4-carboxamide], for which the pIC50 at adenosine A3 receptor is 7.00 to 7.30; on adenosine A2A receptor it was 7.30 to 8.00; against adenosine A1 receptor it was under 6.30; at adenosine A2B receptor, 7.30 to 8.00. For the same compound, the Ratio on adenosine A2B receptor was determined as 0.89.

Regarding `CCOc1ccc(CNC(=O)c2nc(N[C@@H](C)c3ccccn3)nc3ccsc23)cn1` [Example Z170, (S)—N-((6-ethoxypyridin-3-yl)methyl)-2-((1-(pyridin-2-yl)ethyl)amino)thieno[3,2-d]pyrimidine-4-carboxamide], the pIC50 against adenosine A3 receptor is 6.30 to 7.00; on adenosine A2A receptor, 7.00 to 7.30; on adenosine A1 receptor it was 6.30 to 7.00; at adenosine A2B receptor, 7.00 to 7.30. In addition, the Ratio at adenosine A2B receptor is given as 1.24.

Turning to `C[C@H](Nc1nc(C(=O)NCc2ccccc2)c2sccc2n1)c1cccnc1` [Example Z42, (S)—N-Benzyl-2-((1-(pyridin-3-yl)ethyl)amino)thieno[3,2-d]pyrimidine-4-carboxamide], the pIC50 was 7.00 to 7.30 at adenosine A3 receptor, 7.30 to 8.00 on adenosine A2A receptor, 6.30 to 7.00 on adenosine A1 receptor and 6.30 to 7.00 at adenosine A2B receptor. The Ratio on adenosine A2B receptor amounted to 0.20.

For the compound `CNc1cc2nc(N[C@@H](C)c3cccnc3)nc(C(=O)N3CC[C@@H](F)C3)c2s1` [Example Z161, ((R)-3-Fluoropyrrolidin-1-yl)(6-(methylamino)-2-(((S)-1-(pyridin-3-yl)ethyl)amino)thieno[3,2-d]pyrimidin-4-yl)methanone], the pIC50 at adenosine A3 receptor was 7.00 to 7.30; at adenosine A2A receptor, 6.30 to 7.00; against adenosine A1 receptor, under 6.30; on adenosine A2B receptor it was over 8.00. Moreover, the Ratio on adenosine A2B receptor is on record as 29.83.
